Target: T1, bTG (Bacillus subtilis transglutaminase) (Bacillus subtilis, UniProt P40746)
T1 construct: gene tgl; recombinant, expressed in E. coli in active form and purified; about 28 kDa; construct details only in S1 File
T1 sequence (P40746 1-245): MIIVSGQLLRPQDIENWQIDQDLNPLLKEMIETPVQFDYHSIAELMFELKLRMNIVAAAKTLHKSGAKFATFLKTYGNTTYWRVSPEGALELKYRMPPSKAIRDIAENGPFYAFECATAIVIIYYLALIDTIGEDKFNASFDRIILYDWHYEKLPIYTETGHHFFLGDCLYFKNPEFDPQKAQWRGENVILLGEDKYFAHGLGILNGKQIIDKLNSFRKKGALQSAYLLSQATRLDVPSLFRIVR
Assay: GDH-coupled assay; fluorescent labelling on SDS-PAGE
Assay type: biochemical
Settings: acyl acceptor at 5 mM; 0.8 μM Q-tagged mRuby2 as acyl donor; 0.1 U bTG; 20 min; gel labelling 3 h at 37 °C; initial rates only

CN(C)c1cccc2c(S(=O)(=O)NCCCCCN)cccc12 [dansyl-cadaverine]
GDH-coupled assay; fluorescent labelling on SDS-PAGE: initial rates of transamidation between Q-tagged mRuby2 and dansyl-cadaverine were measured using the GDH-coupled assay
